According to patent US11400106B2, “Methods for inhibiting microbe growth” (priority 2018, dated 2022):
Where two headings read alike, the source gives them in different places.

Tests used:
[1] = Excerpt: PMF is driven in part by a transmembrane gradient where the periplasmic side of the membrane has a greater concentration of protons. Thus, the addition of buffering agents to alter the external pH can have a significant effect on PMF. […] Steps were taken throughout the studies to confirm that bicarbonate supplemented media were at pH 7.4, and adjusted where necessary.
E. coli [2] = assay: microbe, parasite or virus in culture; assay type: cell-based, Escherichia coli; conditions: for MIC: Escherichia coli, 18 h, MHB in the absence of sodium bicarbonate, read-out: MIC, E. coli, MHB−
S. aureus [3] = assay: microbe, parasite or virus in culture; conditions: for MIC: Staphylococcus aureus, 18 h, read-out: MIC, S. aureus, MHB−
E. coli [4] = assay: Gentamicin potency analysis with CCCP pre-treatment; assay type: cell-based, Escherichia coli; conditions: 25 mM sodium bicarbonate, CCCP pre-treated cells
Protocol: In the following experiments, bacterial cells were cultured in 96-well microtiter plates in cation-adjusted Mueller-Hinton Broth (MHB) for 18 h at 37° C. The main strains used were E. coli (K-12 BW25113) (placed in stationary incubator) and S. aureus (Newman Strain) (incubated at 250 r.p.m). […] For MIC determination and checkerboard analyses, Clinical & Laboratory Standards Institute (CLSI) protocol was used. […] DiSC3 loading of S. aureus cells was performed as previously described (Farha et al., Collapsing the proton motive force to identify synergistic combinations against Staphylococcus aureus. Chemistry & biology 20, 1168-1178, doi:10.1016/j.chembiol.2013.07.006 (2013)). CCCP concentration of 20 μM was used. pH adjustments were made by addition of HCl or NaOH. INT assay and ATP bioluminescence assays were performed as previously described (Farha et al., Collapsing the proton motive force to identify synergistic combinations against Staphylococcus aureus. Chemistry & biology 20, 1168-1178, doi:10.1016/j.chembiol.2013.07.006 (2013)). For chemical-genomic studies, the Keio library was grown overnight in cation-adjusted MHB broth, in 384-well plates. […]

E. coli [5] = assay: Checkerboard microdilution with sodium bicarbonate against E. coli; assay type: cell-based, Escherichia coli
Protocol: In the following experiments, bacterial cells were cultured in 96-well microtiter plates in cation-adjusted Mueller-Hinton Broth (MHB) for 18 h at 37° C. The main strains used were E. coli (K-12 BW25113) (placed in stationary incubator) and S. aureus (Newman Strain) (incubated at 250 r.p.m). Knockout strains (ΔtolcC and ΔychM) were used from the Keio knockout collection (Baba et al., Construction of Escherichia coli K-12 in-frame, single-gene knockout mutants: the Keio collection. Mol Syst Biol 2, 2006 0008, doi:10.1038/msb4100050 (2006)). For MIC determination and checkerboard analyses, Clinical & Laboratory Standards Institute (CLSI) protocol was used. […] DiSC3 loading of S. aureus cells was performed as previously described (Farha et al., Collapsing the proton motive force to identify synergistic combinations against Staphylococcus aureus. Chemistry & biology 20, 1168-1178, doi:10.1016/j.chembiol.2013.07.006 (2013)). CCCP concentration of 20 μM was used. pH adjustments were made by addition of HCl or NaOH. INT assay and ATP bioluminescence assays were performed as previously described (Farha et al., Collapsing the proton motive force to identify synergistic combinations against Staphylococcus aureus. Chemistry & biology 20, 1168-1178, doi:10.1016/j.chembiol.2013.07.006 (2013)). For chemical-genomic studies, the Keio library was grown overnight in cation-adjusted MHB broth, in 384-well plates. From these, treatment plates (25 mM sodium bicarbonate, or a sterile water control) were inoculated and grown for 15 hours at 37° C., in a stationary incubator. Data was normalized according to Mangat et al (Mangat et al., Rank ordering plate data facilitates data visualization and normalization in high-throughput screening. J Biomol Screen 19, 1314-1320, doi:10.1177/1087057114534298 (2014)), with gene products and GO terms mined from EcoCyc. The GFP promoter library (Keseler et al., EcoCyc: fusing model organism databases with systems biology. Nucleic Acids Res 41, D605-612, doi:10.1093/nar/gks1027 (2013)) was grown for 18 hours at ambient temperature with the same inoculation strategy as with the Keio collection. The analysis pipeline of Zaslaver et al (Zaslaver et al., A comprehensive library of fluorescent transcriptional reporters for Escherichia coli. Nat Methods 3, 623-628, doi:10.1038/nmeth895 (2006)) was used to generate maps of promoter activity, from which lists of promoters with increased or decreased activity were compiled.
The effect of sodium bicarbonate on the activity of various antibacterial agents was investigated. Clinical isolates of various bacteria were obtained from the American Type Culture Collection (“ATCC”) and the International Health Management Associates (“IHMA”). Fractional inhibitory concentration indices (FICIs) were determined by setting up standard checkerboard broth microdilution assays in 96-well microtiter plates with serially diluted 8 (or 10) concentrations of each drug (sodium bicarbonate and the antibacterial agent). The protocol for checkerboard analyses was based on the CLSI guidelines. Plates were incubated at 37° C. for 18 hours, and optical density was read at 600 nm. At least 3 replicates were done for each query compound.
The FIC index (FICI) is the sum of the two FICs. Chemical-chemical interactions with ΣFIC of less or equal to 0.5 were deemed synergistic.
As validation, three of the antibiotic agents were further tested with checkerboard analyses. Checkerboard broth microdilution assays were set up in 96-well microtiter plates with serially diluted 8 (or 10) concentrations of each compound (sodium bicarbonate and the antibiotic). The protocol for checkerboard analyses was based on the CLSI guidelines. Plates were incubated at 37° C. for 18 hours, and optical density was read at 600 nm. At least 3 replicates were done for each query compound.

S. aureus [6] = assay: Checkerboard microdilution with nigericin; assay type: cell-based, Staphylococcus aureus
Excerpt: Shown are microdilution checkerboard analyses, where the extent of inhibition is shown as a heat plot, such that the darkest checkerboard square represents full bacterial growth.

[7] = tested on: methicillin-resistant Staphylococcus aureus (MRSA); assay: Susceptibility testing of MRSA clinical isolates (n=100); assay type: cell-based; conditions: MRSA (n=100); comparators in the absence of bicarbonate
Protocol: (§1) This study included one hundred (n=100) clinical isolates of methicillin-resistant Staphylococcus aureus (MRSA) and ninety-two (n=92) clinical isolates of P. aeruginosa. All samples were collected from patients at Hamilton Health Sciences hospitals (Hamilton, Ontario, Canada). Isolates, regardless of site of infection, were selected for study if they were resistant to three or more antibiotics. The isolates were cultured on plates and subsequently tested for antimicrobial susceptibility. Initial culture and antibiotic susceptibility testing were performed by Hamilton General Hospital General Microbiology Laboratory using a VITEK 2 Automated System and its Advanced Expert System (bioMerieux) and were compliant with Clinical & Laboratory Standards Institute (CLSI) antibiotic susceptibility testing formulations. Both quantitative minimum inhibitory concentration (MIC) and CLSI breakpoints were reported for each antibiotic. Additionally, a total of 7 conjunctival-sourced ocular isolates of Streptococcus pneumoniae collected by the International Health Management Associates (IHMA) from various locations in the United States were used in the study.
(§2) Antimicrobial sensitivity of the pathogenic strains was determined in compliance with the CLSI protocol. Mueller-Hinton agar plates were used to streak out bacterial species and the direct colony suspension method for inoculum preparation was used to make a suspension of the organism in saline to the density of a McFarland 0.5 turbidity standard. Cation-adjusted Mueller-Hinton broth (CA-MHB) manufactured according to ISO technical standard was used for susceptibility testing in standard 96-well microdilution plates. All antibiotics were purchased as powders from Sigma-Aldrich Canada Co. (Oakville, Canada) and dissolved in appropriate solvent to provide stock solutions as instructed by the manufacturer. Desired test antibiotic solutions were diluted in solvent at a highest test concentration resulting in 256 μg/mL. Where sodium bicarbonate was used, aqueous sterile-filtered sodium bicarbonate solution (7.5% stock) from Sigma-Aldrich Canada Co. (Oakville, Canada) was diluted to the desired concentration in CAMHB. Plates were incubated for 18 hours at 37° C. and read at 600 nm on a Tecan, infinite M1000 PRO plate reader. In accordance with CLSI, methods with appropriate medium supplements for fastidious streptococci (2.5% lysed horse blood, Innovative Research, Inc., Novi, Mich.) were used. […] All MICs in the study were conducted in duplicate.

P. aeruginosa = assay: Susceptibility testing of P. aeruginosa clinical isolates (n=92); assay type: cell-based, Pseudomonas aeruginosa; conditions: P. aeruginosa (n=92); comparators in the absence of bicarbonate
Protocol: as §1, §2

O=P([O-])([O-])[O-].[Na+].[Na+].[Na+] [trisodium phosphate]
effect on activity of dirithromycin, pH not adjusted ([1]; pH not adjusted (pH~10)): potentiated the activity of dirithromycin
effect on activity of dirithromycin, pH adjusted ([1]; pH of the medium adjusted to 7.2): loss of synergy

Gentamicin
Fold, E. coli (E. coli [2]): 8
Fold, S. aureus (S. aureus [3]): 2
MIC, S. aureus, MHB− (S. aureus [3]; MHB in the absence of sodium bicarbonate): 2
MIC, S. aureus, MHB+ (S. aureus [3]; MHB in the presence of 25 mM sodium bicarbonate): 1
effect of CCCP pre-incubation on potentiation by sodium bicarbonate (E. coli [4]): reversed the potentiation

C[C@@H]1O[C@@H]1P(=O)(O)O [Fosfomycin]
effect of 25 mM sodium bicarbonate on antibacterial activity (E. coli [2]): suppressed
MIC (E. coli [2]): 4 µg/mL
MIC, S. aureus, MHB+ (S. aureus [3]): 64
effect of 25 mM sodium bicarbonate on antibacterial activity (S. aureus [3]; S. aureus, result in words): suppressed
MIC (S. aureus [3]): 16 µg/mL
interaction with sodium bicarbonate (checkerboard) (E. coli [5]): suppressed
interaction with nigericin (checkerboard) (S. aureus [6]): antagonistic interactions

COc1c(N2C[C@@H]3CCCN[C@@H]3C2)c(F)cc2c(=O)c(C(=O)O)cn(C3CC3)c12 [Moxifloxacin]
MIC (E. coli [2]): 0.0313 µg/mL
MIC (S. aureus [3]): 0.125 µg/mL
MIC90 comparison of topical ophthalmic antibiotics [7]: resistance
MIC90 comparison of topical ophthalmic antibiotics (P. aeruginosa): resistance
